Columns and labels:
Format in all cases: functional
[1] = species on record: Rattus norvegicus; assay: Percentage of residual insulin secretion value in the pancreatic islets of rat after treatment with the compound at 10 uM concentration
[2] = species on record: Rattus norvegicus; assay: Myorelaxant activity of the compound against insulin secretion in the pancreatic islets ofrat; (activity expressed as ED50); conditions: read-out: ED50 (the source's name)
[3] = species on record: Rattus norvegicus; assay: Myorelaxant effect of the compound on 80 mM KCl induced rat aorta rings determined; (activity expressed as ED50); conditions: read-out: ED50 (the source's name)
[4] = species on record: Rattus norvegicus; assay: Inhibitory concentration against rat vascular smooth muscle tissue
[5] = species on record: Rattus norvegicus; assay: Myorelaxant effect of the compound on 30 mM KCl induced rat aorta rings determined after incubated with the 0 uM glibenclamide in the medium; (activity expressed as ED50); conditions: read-out: ED50 (the source's name)
[6] = species on record: Rattus norvegicus; assay: Myorelaxant effect of the compound on 30 mM KCl induced rat aorta rings determined after incubated with the 1 uM glibenclamide in the medium; (activity expressed as ED50); conditions: read-out: ED50 (the source's name)
[7] = species on record: Rattus norvegicus; assay: Myorelaxant effect of the compound on 30 mM KCl induced rat aorta rings determined after incubated with the 10 uM glibenclamide in the medium; (activity expressed as ED50); conditions: read-out: ED50 (the source's name)
[8] = species on record: Rattus norvegicus; assay: Myorelaxant effect on 80 mM KCl induced rat aorta rings determined; (activity expressed as ED50); conditions: read-out: ED50 (the source's name)
[9] = species on record: Rattus norvegicus; assay: Myorelaxant effect on 30 mM KCl induced rat aorta rings determined; (activity expressed as ED50); conditions: read-out: ED50 (the source's name)
[10] = species on record: Rattus norvegicus; assay: Myorelaxant effect on 30 mM KCl induced rat aorta rings determined after incubated with the 1 uM glibenclamide in the medium; (activity expressed as ED50); conditions: read-out: ED50 (the source's name)
[11] = species on record: Rattus norvegicus; assay: Myorelaxant effect on 30 mM KCl induced rat aorta rings determined after incubated with the 10 uM glibenclamide in the medium; (activity expressed as ED50); conditions: read-out: ED50 (the source's name)

| Compound | Residual secretion [1] | EC50 [2] | other results |
| --- | --- | --- | --- |
| CCOC(=O)NC1CC(C)(C)Oc2ccc(Cl)cc21 (stereo not given) | 83.3% | 38.5 µM |  |
| CCNC(=O)NC1CC(C)(C)Oc2ccc(F)cc21 (stereo not given) | 106.2% | 42.9 µM |  |
| CC1(C)CC(NC(=O)NCc2ccccc2)c2cc(F)ccc2O1 (stereo not given) | 80.8% |  |  |
| CC1(C)Oc2ccc(C#N)cc2C(N2CCCC2=O)C1O (stereo not given) [CROMAKALIM] | 94.7% | 0.13 µM | EC50 [3]: > 300 µM; IC50 [4]: 130 nM; EC50 [5]: 140 nM; EC50 [6]: 1800 nM; EC50 [7]: 15.2 µM |
| CC1(C)CC(NC(=O)NCc2ccccc2)c2cc(Br)ccc2O1 (stereo not given) | 58.5% | > 300 µM |  |
| Cc1ccc(S(=O)(=O)NC(=O)NC2CC(C)(C)Oc3ccc(Cl)cc32)cc1 (stereo not given) | 103.5% | 63.6 µM |  |
| CCNC(=S)NC1CC(C)(C)Oc2ccc(Br)cc21 (stereo not given) | 80.8% | 3.7 µM |  |
| CC(=O)NC1CC(C)(C)Oc2ccc(Br)cc21 (stereo not given) | 94.2% | 6.4 µM |  |
| CC(C)NC(=S)NC1CC(C)(C)Oc2ccc(Br)cc21 (stereo not given) | 58.9% | 8.7 µM |  |
| CC(C)NC(=S)NC1CC(C)(C)Oc2ccc(F)cc21 (stereo not given) | 88.7% | 18.5 µM |  |
| CCNC(=O)NC1CC(C)(C)Oc2ccc(Br)cc21 (stereo not given) | 91.5% | 7.6 µM |  |
| CC1(C)CC(NC(=S)NCc2ccccc2)c2cc(Cl)ccc2O1 (stereo not given) | 45.4% | 20.2 µM |  |
| CCOC(=O)NC1CC(C)(C)Oc2ccc(F)cc21 (stereo not given) | 100.8% | 72.4 µM |  |
| CC(C)NC(=O)NC1CC(C)(C)Oc2ccc(F)cc21 (stereo not given) | 98.4% | 109 µM |  |
| CCOC(=O)NC1CC(C)(C)Oc2ccc(Br)cc21 (stereo not given) | 88.8% | 25.7 µM |  |
| CCNC(=S)NC1CC(C)(C)Oc2ccc(F)cc21 (stereo not given) | 82.5% | 17.6 µM |  |
| CC1(C)CC(NC(=S)NCc2ccccc2)c2cc(Br)ccc2O1 (stereo not given) | 51.8% | 24.8 µM |  |
| CC1(C)CC(NC(=O)NS(=O)(=O)c2ccc(Cl)cc2)c2cc(Cl)ccc2O1 (stereo not given) | 89.2% | 51 µM |  |
| CC1(C)CC(NC(=O)NS(=O)(=O)c2ccccc2)c2cc(Cl)ccc2O1 (stereo not given) | 94.7% | 210 µM |  |
| CC1=Nc2ccc(Cl)cc2S(=O)(=O)N1 [DIAZOXIDE] | 71.7% | 23.8 µM | IC50 [4]: 23800 nM |
| CC(N/C(=N\C#N)Nc1ccncc1)C(C)(C)C (stereo not given) [PINACIDIL ANHYDROUS] | 96% | 0.35 µM | IC50 [4]: 350 nM |
| CCNC(=O)NC1CC(C)(C)Oc2ccc(Cl)cc21 (stereo not given) | 89.5% | 6.8 µM |  |
| CC(C)NC(=O)NC1CC(C)(C)Oc2ccc(Br)cc21 (stereo not given) | 79.1% | > 300 µM |  |
| CCNC(=S)NC1CC(C)(C)Oc2ccc(Cl)cc21 (stereo not given) | 96.5% | 8.2 µM |  |
| CC(=O)NC1CC(C)(C)Oc2ccc(F)cc21 (stereo not given) | 83.8% | 46.5 µM |  |
| CC1(C)CC(NC(=S)NCc2ccccc2)c2cc(F)ccc2O1 (stereo not given) | 54.4% | 4.3 µM |  |
| CC(C)NC(=S)NC1CC(C)(C)Oc2ccc(Cl)cc21 (stereo not given) | 83.3% | 10.9 µM |  |
| CC1(C)CC(NC(=O)NCc2ccccc2)c2cc(Cl)ccc2O1 (stereo not given) | 67.1% | 15.3 µM |  |
| CC(C)NC(=O)NC1CC(C)(C)Oc2ccc(Cl)cc21 (stereo not given) | 86.3% | 144 µM |  |
| CC(=O)NC1CC(C)(C)Oc2ccc(Cl)cc21 (stereo not given) | 100.8% | 6.6 µM | EC50 [8]: 84.2 µM; EC50 [9]: 6.3 µM; EC50 [10]: 33.8 µM; EC50 [11]: 44.6 µM |

— ChEMBL document CHEMBL1141185, “4,6-Disubstituted 2,2-dimethylchromans structurally related to the K(ATP) channel opener cromakalim: design, synthesis, and effect on insulin release and vascular tone” (J Med Chem, 2005)
